In patent US20260315653A1, “ANTICOAGULANT COMPOSITIONS COMPRISING ANTI-PLATELET AND ANTI-INFLAMMATORY DRUGS AND METHODS AND DEVICES FOR THEIR USE” (Elixir Medical Corporation, priority 2023, published 2026):
Entries after “also recorded” stand apart in the source; their conditions may differ.

What was measured:
[1] = test system: blood clotting (citrated sheep blood); assay: Activated clotting time (ACT) in citrated sheep blood (Example 2); conditions: single drug, 0.6 ng/mg
Protocol: The activated clotting time (ACT) evaluation of anticoagulants was performed in calcium citrate sheep blood and recorded employing the Hemochron® Response device.
The ACT measurements were made in citrated sheep blood. 1.9 ml of citrated sheep blood was added to a test tube containing an activator (Hemochron@Celite@ ACT tubes, Lot F8FTE026 from Accriva Diagnostics, Inc.). A target amount of drug solution was then added into the test tube. The test tube was gently swirled so that the blood and drug was well-mixed. 0.1 ml of 0.3M calcium chloride was then added. The tube was gently shaken before being inserted into the Hemochron Response detector. The ACT read out was recorded and reported. The ACT of the control blood in the absence of any drug as first determined to establish a baseline. Then ACT was determined in the presence of different concentrations of the drug as a single component. Selected drug combinations were then tested to evaluate for potential synergy in action between the two drugs.

[2] = test system: blood clotting (citrated sheep blood); assay: Net activated clotting time (net ACT) in citrated sheep blood (Examples 3-5); set-up: key: seconds; measured ACT minus blood control ACT (165 s); conditions: single drug, blood control 165 seconds
Protocol: The activated clotting time (ACT) evaluation of anticoagulants was performed in calcium citrate sheep blood and recorded employing the Hemochron® Response device. The ACT measurements were made in citrated sheep blood. 1.9 ml of citrated sheep blood was added to a test tube containing an activator (Hemochron@Celite@ ACT tubes, Lot F8FTE026 from Accriva Diagnostics, Inc.). A target amount of drug solution was then added into the test tube. The test tube was gently swirled so that the blood and drug were well-mixed. 0.1 ml of 0.3M calcium chloride was then added. The tube was gently shaken before being inserted into the Hemochron Response detector. The ACT read out was recorded and reported. The ACT of the control blood in the absence of any drug as first determined to establish a baseline. Here the blood control measured is 165 seconds. Then ACT was determined in the presence of different concentrations of the drug as a single component. In the following study, the net ACT (measured ACT minus blood control ACT) was utilized to visualize the synergistic effect of direct factor Xa inhibitor (Rivaroxaban) and direct factor IIa inhibitor (Argatroban) drug combinations. The figures are presented in ng/mg wherein the density of blood and tissue are approximately the same.
Example 4 is the continuation of example 3, which employed the same method as in example 3. The only difference is that the direct factor Xa inhibitor Edoxaban is used in place of direct factor Xa inhibitor Rivaroxaban.
Example 5 is the continuation of example 3, which employed the same method as in example 3. The only difference is that the direct factor Xa inhibitor Betrixaban is used in place of direct factor Xa inhibitor Rivaroxaban.

[3] = test system: blood clotting (heparinized sheep blood); assay: Net ACT initiated by platelet activation factor (PAF) and CaCl2 in heparinized sheep blood (Examples 6-11); conditions: single drug, 0.05 ng/mg; PAF & CaCl2; blood control 235 seconds
Protocol: In order to examine the potential synergistic effects between anti-inflammatory agents, direct factor Xa inhibitors, direct factor IIa inhibitors, antiplatelets (P2Y12 inhibitor and glycoprotein IIb/IIIa inhibitor, platelet activation factor and CaCl2 were utilized by measuring ACT. Heparinized sheep blood was used to preserve platelet function.
The activated clotting time (ACT) evaluation initiated by platelet activation factor (PAF) and calcium chloride (CaCl2) was performed in heparinized sheep blood and recorded employing the Hemochron® Response device. […] A target amount of drug solution was then added into the test tube. The test tube was gently swirled so that the blood and drug were well-mixed. […] The tube was gently shaken before being inserted into the Hemochron Response detector. The ACT read out was recorded and reported. The ACT of the control heparinized sheep blood in the absence of any drug as first measured to establish a baseline. […] Then ACT was measured in the presence of different concentrations of the drug measured. Selected drug combinations were then tested to evaluate for potential synergy in action between the drug combination. The net ACT (ACT minus blood control ACT) was utilized to visualize the synergistic effect. […] The figures are presented in ng/mg wherein the density of blood and tissue are approximately the same.

porcine coronary artery = assay: In vivo porcine coronary stent implantation: fibrin score and late lumen loss (Examples 25-26); conditions: for inhibition of fibrin formation compared to control: Table 10, 7 days and 28 days
Protocol: The drug eluting stent systems containing different anticoagulants prepared as described in Example 11 were evaluated at 3 hours, 6 hours, 1 day, 3 days, 6 days, 7 days, or 28 days following implantation in a porcine coronary artery model.
The porcine model was chosen as this model has been used extensively for stent and angioplasty studies resulting in a large volume of data on the vascular response properties and its correlation to human vascular response (Schwartz et al, Circulation. 2002; 106:1867 1873). The animals were housed and cared for in accordance with the Guide for the Care and Use of Laboratory Animals as established by the National Research Council.
After induction of anesthesia, the left or right femoral artery was accessed using standard techniques and an arterial sheath was introduced and advanced into the artery. Vessel angiography was performed under fluoroscopic guidance, a 7 Fr. guide catheter was inserted through the sheath and advanced to the appropriate location where intracoronary nitroglycerin was administered. An appropriate implantation segment of coronary artery was randomly selected and a 0.014″ guidewire inserted. Quantitative Coronary Angiography (QCA) was performed to document the results. The appropriately size stent was advanced to the deployment site. The balloon was inflated at a steady rate to a pressure sufficient to achieve a balloon to artery ratio of approximately 1.1 to 1.0.
Follow up angiography was performed at the designated timepoint for each of the animals. Late lumen loss (LLL) can be expressed as: […]
The LLL is an indicator of the amount smooth muscle cell (SMC) proliferation or inhibition. It is used to measure efficacy between drugs for SMC proliferation inhibition. The smaller the LLL, the better the efficacy of the drug.
Stented portions of coronary arteries were embedded in methyl methacrylate (MMA), then divided into a target of at least three blocks of approximately similar lengths for histology evaluation. Quantitative histopathological evaluation of stented artery sections was then performed and scored as indicated. For Fibrin formation, scores ranged from 0 to 3, with a score of 0 indicating absent or rare minimal spotting around struts of the stent, a score of 1 indicating the presence of fibrin in small amounts localized only around the struts, a score of 2 indicating the moderately abundant or denser presence of fibrin around and extending beyond the struts, and a score of 3 indicating the presence of abundant and dense fibrin and/or bridging of the fibrin between the struts. The mean score was calculated and reported. The mean of each section was then averaged to provide a mean fibrin score per stent. The smaller the fibrin score, the better efficacy.

[4] = In vivo drug release from / drug remaining on implanted stents (HPLC); set-up: species or system porcine; conditions: 7 days, n = 5
Protocol: The percentage and/or amount of each anticoagulant drug for or by each time point indicated were analyzed for each stent from the different devices in the example and the average drug tissue concentration reported.
Tissue concentrations and the amount of drug released from the stents were measured using stents implanted in porcine arteries for the drugs as indicated. The arteries at the designated time point were excised and a length of stented artery spanning from 5 mm proximal to the stented segment to 5 mm distal to the stented segment was cut. The stented artery was cut longitudinally with surgical scissors. The stents were separated from the tissue. The tissue content of each drug was analyzed using liquid chromatography mass spectroscopy (LCMS) and reported as a mean for each of the timepoint indicated. For drug remaining on each stent, each drug was extracted from the stent, measured using HPLC, and reported as a mean for each of the timepoint indicated as drug released or drug remaining on a stent (where drug remaining is equal to 100% minus the percentage of drug released).

[5] = test system: platelets (Tissue factor generated antiplatelet); conditions: cited from earlier work

| SMILES | ACT [1] | net ACT ([2]; 0.15 ng/mg) | net ACT ([2]; 0.3 ng/mg) | net ACT [3] [s] | inhibition of fibrin formation compared to bare metal control stents (porcine coronary artery; Table 9, day 7) | inhibition of fibrin formation compared to control (porcine coronary artery) | inhibition of fibrin formation compared to control (porcine coronary artery; listed as Rivamomaban) | Cumulative Percent Release of drug: Rivaroxaban [4] | Cumulative Percent Release of drug: Rivaroxaban ([4]; listed as Rivamomaban) | IC50 [5] [nM] | IC50 for Tissue factor generated antiplatelet [5] [ng/mg] |
| --- | --- | --- | --- | --- | --- | --- | --- | --- | --- | --- | --- |
| COc1ccc(-n2nc(C(N)=O)c3c2C(=O)N(c2ccc(N4CCCCC4=O)cc2)CC3)cc1 [Apixaban] | 522 |  |  |  |  |  |  |  |  |  |  |
| O=C(NC[C@H]1CN(c2ccc(N3CCOCC3=O)cc2)C(=O)O1)c1ccc(Cl)s1 [Rivaroxaban] |  | 114 | 139 | 166 | effective at inhibiting fibrin formation | effective at inhibiting fibrin formation compared to control at 7 days and at 28 days when it was released at a faster rate and/or at a larger dose; also recorded: not effective at inhibiting fibrin formation compared to control at 28 days when it was released at a slower rate and/or at a smaller dose; also recorded: more effective at inhibiting fibrin formation compared to control at 7 days and at 28 days; also recorded: not effective at inhibiting fibrin formation compared to control at 28 days | more effective at inhibiting fibrin formation compared to control at 7 days and at 28 days | at least 88.9% | at least 99.7% | 312 | 0.136 |
